Laboratory results from patent US9751890B2, “Heteroaryl derivatives as CFTR modulators” (Vertex Pharmaceuticals Incorporated, priority 2008, dated 2017).

Target: T1, ΔF508-CFTR (Homo sapiens, UniProt P13569, DEL508-508)
T1 construct: expressed in transfected cells
Experiment: Membrane potential optical assay for ΔF508-CFTR correction (single-addition HTS format)
Format: cell-based
Details: NIH3T3 mouse fibroblasts stably expressing ΔF508-CFTR; 16-24 hrs with compound; activation with 10 μM forskolin and 20 μM genistein; read-out: BinnedMaxEfficacy (PercentActivity)
Excerpt: Membrane potential optical methods for assaying ΔF508-CFTR modulation properties of compounds.
The assay utilizes fluorescent voltage sensing dyes to measure changes in membrane potential using a fluorescent plate reader (e.g., FLIPR III, Molecular Devices, Inc.) as a readout for increase in functional ΔF508-CFTR in NIH 3T3 cells. The driving force for the response is the creation of a chloride ion gradient in conjunction with channel activation by a single liquid addition step after the cells have previously been treated with compounds and subsequently loaded with a voltage sensing dye.
To identify small molecules that correct the trafficking defect associated with ΔF508-CFTR; a single-addition HTS assay format was developed. Assay Plates containing cells are incubated for ˜2-4 hours in tissue culture incubator at 37° C., 5% CO2, 90% humidity. Cells are then ready for compound exposure after adhering to the bottom of the assay plates.
The cells were incubated in serum-free medium for 16-24 hrs in tissue culture incubator at 37° C., 5% CO2, 90% humidity in the presence or absence (negative control) of test compound. The cells were subsequently rinsed 3× with Krebs Ringers solution and loaded with a voltage sensing redistribution dye. To activate ΔF508-CFTR, 10 μM forskolin and the CFTR potentiator, genistein (20 μM), were added along with Cl^−-free medium to each well. The addition of Cl^−-free medium promoted Cl^− efflux in response to ΔF508-CFTR activation and the resulting membrane depolarization was optically monitored using voltage sensor dyes.
Bath Solution #1: (in mM) NaCl 160, KCl 4.5, CaCl2 2, MgCl2 1, HEPES 10, pH 7.4 with NaOH.
Chloride-free bath solution: Chloride salts in Bath Solution #1 are substituted with gluconate salts.
NIH3T3 mouse fibroblasts stably expressing ΔF508-CFTR are used for optical measurements of membrane potential. The cells are maintained at 37° C. in 5% CO2 and 90% humidity in Dulbecco's modified Eagle's medium supplemented with 2 mM glutamine, 10% fetal bovine serum, 1×NEAA, β-ME, 1× pen/strep, and 25 mM HEPES in 175 cm^2 culture flasks. For all optical assays, the cells were seeded at ˜20,000/well in 384-well matrigel-coated plates and cultured for 2 hrs at 37° C. before culturing at 27° C. for 24 hrs. for the potentiator assay. For the correction assays, the cells are cultured at 27° C. or 37° C. with and without compounds for 16-24 hours.

T1 sequence (P13569 with tags, fused parts or gaps DEL508-508): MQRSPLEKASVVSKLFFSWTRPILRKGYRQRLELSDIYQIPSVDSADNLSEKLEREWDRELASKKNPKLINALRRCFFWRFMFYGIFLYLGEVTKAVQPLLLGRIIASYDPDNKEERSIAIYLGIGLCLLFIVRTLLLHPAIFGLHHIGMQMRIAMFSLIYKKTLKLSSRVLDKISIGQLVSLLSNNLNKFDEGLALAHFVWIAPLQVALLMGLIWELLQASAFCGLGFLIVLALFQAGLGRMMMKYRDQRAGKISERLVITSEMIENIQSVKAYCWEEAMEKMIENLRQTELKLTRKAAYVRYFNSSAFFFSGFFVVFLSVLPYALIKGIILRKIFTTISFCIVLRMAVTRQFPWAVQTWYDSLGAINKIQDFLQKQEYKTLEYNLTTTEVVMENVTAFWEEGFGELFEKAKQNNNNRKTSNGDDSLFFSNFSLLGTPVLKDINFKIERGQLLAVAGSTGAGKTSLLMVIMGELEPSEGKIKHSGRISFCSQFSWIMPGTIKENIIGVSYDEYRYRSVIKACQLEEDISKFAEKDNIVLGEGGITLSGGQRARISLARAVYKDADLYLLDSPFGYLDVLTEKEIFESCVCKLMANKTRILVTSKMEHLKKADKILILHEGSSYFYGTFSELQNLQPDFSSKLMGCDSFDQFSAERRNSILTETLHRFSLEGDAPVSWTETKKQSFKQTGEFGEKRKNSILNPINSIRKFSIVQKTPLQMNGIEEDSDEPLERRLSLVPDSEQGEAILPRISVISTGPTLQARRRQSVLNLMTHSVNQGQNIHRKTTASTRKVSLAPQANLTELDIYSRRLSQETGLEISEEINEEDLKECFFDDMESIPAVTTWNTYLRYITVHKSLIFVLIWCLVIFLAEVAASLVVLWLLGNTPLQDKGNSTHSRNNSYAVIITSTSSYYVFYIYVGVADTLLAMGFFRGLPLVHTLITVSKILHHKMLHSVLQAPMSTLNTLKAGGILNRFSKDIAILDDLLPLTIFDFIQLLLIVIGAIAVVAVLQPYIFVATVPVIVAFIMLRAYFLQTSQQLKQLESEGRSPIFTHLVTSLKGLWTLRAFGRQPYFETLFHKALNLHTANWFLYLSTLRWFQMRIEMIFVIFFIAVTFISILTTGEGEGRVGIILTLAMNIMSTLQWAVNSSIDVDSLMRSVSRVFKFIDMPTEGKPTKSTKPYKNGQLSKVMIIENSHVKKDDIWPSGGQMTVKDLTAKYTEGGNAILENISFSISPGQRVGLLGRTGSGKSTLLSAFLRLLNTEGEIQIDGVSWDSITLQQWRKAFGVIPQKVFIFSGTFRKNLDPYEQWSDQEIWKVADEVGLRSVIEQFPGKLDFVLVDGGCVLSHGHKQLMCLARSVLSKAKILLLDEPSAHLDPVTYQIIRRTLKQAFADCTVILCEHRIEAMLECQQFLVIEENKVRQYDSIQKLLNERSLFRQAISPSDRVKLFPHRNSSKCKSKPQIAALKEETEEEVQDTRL

| SMILES | Emax [%] |
| --- | --- |
| Cc1ccc(S(=O)(=O)c2ncccc2NC(=O)C2(c3ccc4c(c3)OCO4)CC2)cc1 [Compound 18, 1-(benzo[d][1,3]dioxol-5-yl)-N-(2-tosylpyridin-3-yl)cyclopropanecarboxamide] | > 100 |
| Cc1ncc(NC(=O)C2(c3ccc4c(c3)OCO4)CC2)cc1-c1cccc(C(=O)O)c1 [Compound 38, 3-(5-(1-(benzo[d][1,3]dioxol-5-yl)cyclopropanecarboxamido)-2-methylpyridin-3-yl)benzoic acid] | 25 to 100 |
| Cc1ncc(NC(=O)C2(c3ccc4c(c3)OCO4)CC2)cc1-c1ccccc1 [Compound 42, 1-(benzo[d][1,3]dioxol-5-yl)-N-(6-methyl-5-phenylpyridin-3-yl)cyclopropanecarboxamide] | > 100 |

Now from value to molecule:

| Emax [%] | SMILES |
| --- | --- |
| 25 to 100 | O=C(Nc1ccc(CC2CCCCC2)nn1)C1(c2ccc3c(c2)OCO3)CC1 [Compound 5, 1-(benzo[d][1,3]dioxol-5-yl)-N-(6-(cyclohexylmethyl)pyridazin-3-yl)cyclopropanecarboxamide] |
| > 100 | COc1ccccc1Nc1cnc(NC(=O)C2(c3ccc4c(c3)OCO4)CC2)cn1 [Compound 2, 1-(benzo[d][1,3]dioxol-5-yl)-N-(5-(2-methoxyphenylamino)pyrazin-2-yl)cyclopropanecarboxamide] |
| 25 to 100 | CC(C)c1ccc(NC(=O)C2(c3ccc4c(c3)OCO4)CC2)cn1 [Compound 31, 1-(Benzo[d][1,3]dioxol-5-yl)-N-(6-isopropylpyridin-3-yl)cyclopropanecarboxamide] |
